# Where “and” joins values, the source holds several entries; their conditions need not be identical. Equal values may be shown once. Read-outs that look alike come from different tables or passages of the source.
# What was measured:
# [1] = Plasma pharmacokinetics after a single oral dose in healthy male subjects; assay type: in vivo, human; conditions: single oral dose of 250 mg; for Cmax: male, human, po, 250 mg
# Procedure: The skin accumulation found in this study was compared to plasma levels of Compound 1 determined in a previous study in healthy human volunteers. Six healthy male subjects were given a single oral dose of 250 mg Compound 1, and plasma samples were collected pre-dose and at 0.25, 0.5, 0.75, 1, 1.5, 2, 2.5, 3, 4, 6, 8, 10, 12, 18, 24, 30, 36, 48, 72 and 96 hours after dosing.
# [2] = Accumulation of Compound 1 in skin punch biopsies of HS patients; assay type: in vivo, human
# Procedure: The accumulation of Compound 1 in the skin of human HS patients in the clinical study described in Example 1 was determined. […] FIG. 6 is a graph showing the concentrations of Compound 1 found in the biopsied tissues in subjects grouped according to their clinical response to Compound 1 therapy. The mean skin concentration following 16 weeks of treatment with Compound 1 was 7130 ng/mg, which is equivalent to 16.1 mM.
# [3] = tested on: subjects with moderate to severe hidradenitis suppurativa; test: Placebo controlled clinical study of Compound 1 in hidradenitis suppurativa patients; assay type: in vivo, human
# Procedure: A placebo controlled clinical study was conducted to assess the efficacy of Compound 1 in HS patients. The study design is summarized below.
# Fifteen patients were entered into the study and randomly assigned to the Compound 1 arm (10 patients) or the placebo arm (5 patients). The study was open to male or female subjects aged 18 years or older with hidradenitis suppurativa with minimum 5 inflammatory nodules in at least 2 distinct anatomic areas. The study was conducted in Denmark.
# The study duration was approximately 24 weeks, including a 4-week screening phase, a 16-week treatment phase, and a 4-week observational follow-up phase to assess for hidradenitis suppurativa relapse and flare.
# The primary objective of the study was to evaluate the efficacy of Compound 1 in subjects with moderate to severe hidradenitis suppurativa. The secondary objectives were to (1) evaluate the efficacy of Compound 1 on other clinical disease activity parameters in subject with moderate to severe hidradenitis suppurativa and (2) to evaluate the safety of Compound 1 in subjects with moderate to severe hidradenitis suppurativa.
# The primary efficacy endpoint of the study was the percentage of subjects achieving Hidradenitis Suppurativa Clinical Response 50 (HiSCR-50) score at Week 16. The secondary efficacy endpoints were: • (1) the percentage of subjects with Hidradenitis Suppurativa Physician's Global Assessment (HS-PGA) scores of clear or minimal at Weeks 2, 4, 8, 12, 14, 16, and 20; • (2) the percentage of subjects achieving HiSCR-50, HiSCR-75, and HISCR-90 at Weeks 2, 4, 8, 12, 14, 16, and 20; • (3) changes from baseline in the Dermatology Life Quality Index (DLQI) total score at Weeks 4, 8, 12, 16, and 20; • (4) changes from baseline in the Pain Numerical Ranging score at Weeks 4, 8, 12, 16, and 20; • (5) change and percent change from Baseline in lesion counts (abscess count, inflammatory nodule count, AN count, and draining tunnel count); • (6) change from baseline in skin biomarkers at Week 16; • (7) change from baseline in blood biomarkers at Weeks 4, 8, 12, and 16.
# This was a 16-week treatment, randomized, double-blind, proof-of-concept study designed to assess the safety and efficacy of Compound 1 compared to placebo for use in future efficacy Phase 2 trials.
# Eligible subjects completed an up-to 4-week screening phase and sequentially be randomized 2:1 to one of two cohorts, treatment cohort (n=10) or placebo-control cohort (n=5), in a 16-week treatment phase followed by a 4-week observational follow-up phase. In the 16-week treatment phase, subjects randomized to the treatment group receive 250 mg Compound 1 free base in the form of a tablet administered orally once daily. The 250 mg dose was selected based on the results of an earlier oncology trial conducted with doses in excess of 1000 mg/day as a safe minimal dose from which to conduct dose escalation if required. Subjects randomized to the placebo-control group receive placebo treatment once daily (microcrystalline cellulose, mannitol, crospovidone, Opadry II red, magnesium stearate, colloidal silicon dioxide).
# HiSCR, HS-PGA, Pain-NRS, and DLQI were performed to assess efficacy. Safety was assessed with the vital signs, physical examination, clinical laboratory tests, ECG, and collection of AEs.
# HSP-90 = conditions: read-out: IC50 for inhibition of HSP-90; cited from earlier work
# [4] = individual healthy male subjects
# [5] = following 16 weeks of treatment, 250 mg orally once daily, skin punch biopsies
smiles,measurement,setting,value
CN(C)c1cc2c(cc1Sc1nc3c(N)nccc3n1CCNCC(C)(C)C)OCO2 [Compound 1],Cmax,"[1]; read-out: Cmax, range over six subjects",19.4 to 24.9 ng/mL
same,Cmax,"[1]; six subjects, read-out: Cmax, median",20.3 ng/mL
same,Cmax,"[1]; six subjects, read-out: Cmax, median (molar)",46 nM
same,AUClast,[1]; [4],51.64 ng·h/mL and 70.13 ng·h/mL and 36.82 ng·h/mL and 25.64 ng·h/mL and 45.08 ng·h/mL and 54.08 ng·h/mL
same,AUC∞,[1]; [4],51.64 ng·h/mL and 85.79 ng·h/mL and 36.82 ng·h/mL and 25.64 ng·h/mL and 45.08 ng·h/mL and 54.08 ng·h/mL
same,accumulation in the skin relative to plasma,"[2]; daily oral dosing at 250 mg, skin versus plasma of healthy volunteers","approximately 100,000 fold"
same,mean skin concentration,[2]; [5],7130 ng/mg
same,mean skin concentration (molar equivalent),[2]; [5],16.1 mM
same,likelihood of achieving HiSCR50,"[3]; beginning at 12 weeks and continuing to 16 weeks, 250 mg orally once daily, compared to control",substantially more likely to achieve HiSCR50
same,subjects achieving HiSCR75,"[3]; by 14 weeks, 250 mg orally once daily, no subjects in the control",50%
same,subjects achieving HiSCR90,"[3]; by 16 weeks, 250 mg orally once daily, no subjects in the control",30%
same,IHS4 at baseline,"[3]; individual subjects of the Compound 1 arm, before treatment",17 and 43 and 14 (2×) and 10 and 6 and 20 (2×) and 28 and 11
same,IHS4 at week 16,"[3]; individual subjects of the Compound 1 arm, 250 mg orally once daily for 16 weeks",4 (2×) and 22 and 3 and 7 (2×) and 21 and 6 and 10 and 2
same,decrease in abscess/nodule (AN) count relative to baseline,"[3]; week 16, 250 mg orally once daily, compared to control",substantially greater decrease in AN count
same,average decrease in HS-PGA compared to baseline,"[3]; week 16, 250 mg orally once daily, control arm showed no change",0.8
same,subjects showing a decrease in IHS4 score,"[3]; week 16 versus baseline, Compound 1 arm (n=10)",Nine of the ten

# — patent US20250288562A1, “Methods and Compositions for Treating Hidradenitis Suppurativa” (Regranion, LLC, priority 2022, published 2025)
